Test results reported in publication PMC11003488 (Journal of Enzyme Inhibition and Medicinal Chemistry, 2023).

Tests used:
SK-MEL-5 = assay: NCI-60 SRB growth inhibition, one-dose and five-dose; assay type: cell-based; details: Homo sapiens
OVCAR-4 = assay: as above; assay type: cell-based; details: Homo sapiens
UACC-257 = assay: as above; assay type: cell-based; details: Homo sapiens
OVCAR-3 = assay: as above; assay type: cell-based; details: Homo sapiens
SK-MEL-28 = assay: as above; assay type: cell-based; details: Homo sapiens
SK-MEL-2 = assay: as above; assay type: cell-based; details: Homo sapiens
M14 = assay: as above; assay type: cell-based; details: Homo sapiens
NCI/ADR-RES = assay: as above; assay type: cell-based; details: Homo sapiens
COLO 205 = assay: as above; assay type: cell-based; details: Homo sapiens
HCT-15 = assay: as above; assay type: cell-based; details: Homo sapiens
786-0 = assay: as above; assay type: cell-based; details: Homo sapiens
NCI-H460 = assay: as above; assay type: cell-based; details: Homo sapiens
BT-549 = assay: as above; assay type: cell-based; details: Homo sapiens
OVCAR-5 = assay: as above; assay type: cell-based; details: Homo sapiens
LOX IMVI = assay: as above; assay type: cell-based; details: Homo sapiens
EKVX = assay: as above; assay type: cell-based; details: Homo sapiens
K-562 = assay: as above; assay type: cell-based; details: Homo sapiens
U251 = assay: as above; assay type: cell-based; details: Homo sapiens
SNB-19 = assay: as above; assay type: cell-based; details: Homo sapiens
MCF7 = assay: as above; assay type: cell-based; details: Homo sapiens
SK-OV-3 = assay: as above; assay type: cell-based; details: Homo sapiens
HT29 = assay: as above; assay type: cell-based; details: Homo sapiens
DU-145 = assay: as above; assay type: cell-based; details: Homo sapiens
NCI-H23 = assay: as above; assay type: cell-based; details: Homo sapiens
[1] = system: NCI 60-cell line panel (full panel); assay: NCI-60 SRB growth inhibition, full panel mean / MG-MID; assay type: cell-based, human
CCRF-CEM = assay: NCI-60 SRB growth inhibition, one-dose and five-dose; assay type: cell-based; details: Homo sapiens
A498 = assay: as above; assay type: cell-based; details: Homo sapiens
MALME-3M = assay: as above; assay type: cell-based; details: Homo sapiens
A549/ATCC = assay: as above; assay type: cell-based; details: Homo sapiens
SR = assay: as above; assay type: cell-based; details: Homo sapiens
SF-268 = assay: as above; assay type: cell-based; details: Homo sapiens
SW-620 = assay: as above; assay type: cell-based; details: Homo sapiens
NCI-H522 = assay: as above; assay type: cell-based; details: Homo sapiens
HOP-92 = assay: as above; assay type: cell-based; details: Homo sapiens
T-47D = assay: as above; assay type: cell-based; details: Homo sapiens, T47D
SNB-75 = assay: as above; assay type: cell-based; details: Homo sapiens
MOLT-4 = assay: as above; assay type: cell-based; details: Homo sapiens
RXF 393 = assay: as above; assay type: cell-based; details: Homo sapiens
SF-295 = assay: as above; assay type: cell-based; details: Homo sapiens
NCI-H322M = assay: as above; assay type: cell-based; details: Homo sapiens
CAKI-1 = assay: as above; assay type: cell-based; details: Homo sapiens
MDA-MB-468 = assay: as above; assay type: cell-based; details: Homo sapiens
[2] = read-out: percent growth inhibition

SMILES: COc1ccc(CNc2cccc(C(=O)/C=C/c3cccnc3)c2)cc1OC [Compound 5c, (E)-1–(3-((3,4-dimethoxybenzyl)amino)phenyl)-3-(pyridin-3-yl)prop-2-en-1-one]
- GI50 (SK-MEL-5; SK-MEL-5): 5.86 µM
- inhibition at 10 µM (SK-MEL-5; SK-MEL-5, read-out: percent growth inhibition): 103%
- GI50 (OVCAR-4; OVCAR-4): 9.31 µM
- inhibition at 10 µM (OVCAR-4; OVCAR-4, read-out: percent growth inhibition): 80.1%
- GI50 (UACC-257; UACC-257): 12.5 µM
- inhibition at 10 µM (UACC-257; UACC-257, read-out: percent growth inhibition): 34%
- GI50 (OVCAR-3; OVCAR-3): 2.74 µM
- inhibition at 10 µM (OVCAR-3; OVCAR-3, read-out: percent growth inhibition): 107%
- GI50 (SK-MEL-28; SK-MEL-28): 5.22 µM
- inhibition at 10 µM (SK-MEL-28; SK-MEL-28, read-out: percent growth inhibition): 98.4%
- GI50 (SK-MEL-2; SK-MEL-2): 15.1 µM
- inhibition at 10 µM (SK-MEL-2; SK-MEL-2, read-out: percent growth inhibition): 23.5%
- GI50 (M14; M14): 3.82 µM
- inhibition at 10 µM (M14; M14, read-out: percent growth inhibition): 146%
- GI50 (NCI/ADR-RES): 2.96 µM
- GI50 (COLO 205; COLO 205): 16.5 µM
- inhibition at 10 µM (COLO 205; COLO 205, read-out: percent growth inhibition): 84.7%
- GI50 (HCT-15; HCT-15): 2.01 µM
- inhibition at 10 µM (HCT-15; HCT-15, read-out: percent growth inhibition): 134%
- GI50 (786-0; 786-0): 3.68 µM
- inhibition at 10 µM (786-0; 786-0, read-out: percent growth inhibition): 133%
- GI50 (NCI-H460; NCI-H460): 5.22 µM
- inhibition at 10 µM (NCI-H460; NCI-H460, read-out: percent growth inhibition): 69%
- GI50 (BT-549; BT-549): 2.57 µM
- inhibition at 10 µM (BT-549; BT-549, read-out: percent growth inhibition): 135%
- GI50 (OVCAR-5; OVCAR-5): 13.9 µM
- inhibition at 10 µM (OVCAR-5; OVCAR-5, read-out: percent growth inhibition): 68.4%
- GI50 (LOX IMVI): 1.76 µM
- inhibition at 10 µM (LOX IMVI; [2]): 192%
- GI50 (EKVX): 10.4 µM
- inhibition at 10 µM (EKVX; [2]): 62.3%
- GI50 (K-562; K562): 2.71 µM
- inhibition at 10 µM (K-562; K562, read-out: percent growth inhibition): 89%
- GI50 (U251; U-251): 3.62 µM
- inhibition at 10 µM (U251; U-251, read-out: percent growth inhibition): 124%
- GI50 (SNB-19; SNB-19): 9.49 µM
- inhibition at 10 µM (SNB-19; SNB-19, read-out: percent growth inhibition): 41.3%
- GI50 (MCF7; MCF7): 1.89 µM
- inhibition at 10 µM (MCF7; MCF7, read-out: percent growth inhibition): 186%
- GI50 (SK-OV-3; SK-OV-3): 16.6 µM
- inhibition at 10 µM (SK-OV-3; SK-OV-3, read-out: percent growth inhibition): 41.8%
- GI50 (HT29; HT-29): 4.38 µM
- inhibition at 10 µM (HT29; HT-29, read-out: percent growth inhibition): 178%
- GI50 (DU-145; DU-145): 12.4 µM
- inhibition at 10 µM (DU-145; DU-145, read-out: percent growth inhibition): 60.5%
- GI50 (NCI-H23; NCI-H23): 1.99 µM
- inhibition at 10 µM (NCI-H23; NCI-H23, read-out: percent growth inhibition): 73.6%
- GI50 ([1]; Homo sapiens, 60 cell, read-out: Full panel GI50 mean): 7.67 µM
- Full panel Mean GI % ([1]; mean over NCI-60 panel, single dose 10 µM): 87.75%
- GI50 (CCRF-CEM): 2.55 µM
- inhibition at 10 µM (CCRF-CEM; [2]): 87.1%
- GI50 (A498; A498): 13.6 µM
- inhibition at 10 µM (A498; A498, read-out: percent growth inhibition): 20%
- GI50 (MALME-3M): 12.5 µM
- inhibition at 10 µM (MALME-3M; [2]): 101%
- GI50 (A549/ATCC; A549): 17.2 µM
- inhibition at 10 µM (A549/ATCC; A549, read-out: percent growth inhibition): 17.6%
- GI50 (SR): 2.48 µM
- inhibition at 10 µM (SR; [2]): 92%
- GI50 (SF-268; SF-268): 5.86 µM
- inhibition at 10 µM (SF-268; SF-268, read-out: percent growth inhibition): 40.4%
- GI50 (SW-620; SW-620): 2.31 µM
- inhibition at 10 µM (SW-620; SW-620, read-out: percent growth inhibition): 177%
- GI50 (NCI-H522; NCI-H522): 13.6 µM
- inhibition at 10 µM (NCI-H522; NCI-H522, read-out: percent growth inhibition): 138%
- GI50 (HOP-92; HOP-92): 11 µM
- inhibition at 10 µM (HOP-92; HOP-92, read-out: percent growth inhibition): 36.8%
- GI50 (T-47D): 10 µM
- inhibition at 10 µM (T-47D; [2]): 105%
- GI50 (SNB-75; SNB-75): 12.9 µM
- inhibition at 10 µM (SNB-75; SNB-75, read-out: percent growth inhibition): 34.2%
- GI50 (MOLT-4; MOLT-4): 2.95 µM
- inhibition at 10 µM (MOLT-4; MOLT-4, read-out: percent growth inhibition): 38.9%
- GI50 (RXF 393; RXF 393): 10.8 µM
- inhibition at 10 µM (RXF 393; RXF 393, read-out: percent growth inhibition): 64.9%
- GI50 (SF-295; SF-295): 10.4 µM
- inhibition at 10 µM (SF-295; SF-295, read-out: percent growth inhibition): 53.7%
- GI50 (NCI-H322M): 14.8 µM
- inhibition at 10 µM (NCI-H322M; [2]): 14.2%
- GI50 (CAKI-1; CAKI-1): 10.2 µM
- inhibition at 10 µM (CAKI-1; CAKI-1, read-out: percent growth inhibition): 39.8%
- GI50 (MDA-MB-468; MDA-MB-468): 4.06 µM
- inhibition at 10 µM (MDA-MB-468; MDA-MB-468, read-out: percent growth inhibition): 157%
